Measured values from patent US20090203792A1, “METHODS OF TREATING NON-PAINFUL BLADDER DISORDERS USING ALPHA2DELTA SUBUNIT CALCIUM CHANNEL MODULATORS” (priority 2002, published 2009).
“Also recorded” adds a separate entry of the source.

Experiments:
[1] = tested on: calcium currents of bladder afferent (DRG) neurons; assay: Bladder sensory neuron calcium current model (whole cell patch-clamp); assay type: cell-based, rat
Source text: Labeling of bladder afferent neurons: Adult female Sprague-Dawley rats (150-300 g) were deeply anesthetized with isoflurane. A ventral midline incision was made through the abdominal skin and musculature, exposing the urinary bladder. Five injections of the fluorescent dye Fast Blue (4%) were made into the bladder smooth muscle wall to label primary afferent fibers innervating the bladder. The area was rinsed with sterile saline to eliminate nonspecific spread of dye, and the incision was closed. Rats recovered for 12-14 days to allow for transport of Fast Blue from distal terminals to the cell somata of dorsal root ganglion (DRG) neurons. Labeled neurons were identified in vitro using fluorescence optics. […]
Neurons were incubated in culture medium containing the FITC-labeled lectin BSI-B4 (IB4, […]) at 37° C. for 5 min before recording. The coverslip was washed with extracellular recording solution for 1 min before being placed in a recording chamber mounted on the stage of an inverted microscope equipped with fluorescence optics. […]
Calcium currents were recorded from DRG neurons using standard electrophysiologic protocols. […] Currents were recorded using a patch-clamp amplifier and digitized at 3-10 kHz for acquisition. […] Baseline responses were recorded until a steady-state peak amplitude was obtained, and to ensure that the kinetics of the response were stable. […]

[2] = tested on: rat bladder irritated by intravesical dilute acetic acid; assay: Dilute acetic acid model of bladder overactivity, filling cystometry; assay type: in vivo; conditions: for bladder capacity normalized to pre-irritation saline control values (reversal of acetic acid-induced reduction) / bladder capacity during continuous intravesical dilute acetic acid infusion: rats; for bladder capacity normalized to pre-irritation saline control values (reversal of acetic acid-induced reduction): intravenous cumulative doses: gabapentin 30-300 mg/kg n=11, pregabalin 10-100 mg/kg n=7; for bladder capacity during continuous intravesical dilute acetic acid infusion: intravenous increasing doses (gabapentin 30-300 mg/kg, p=0.0031 by Friedman test; pregabalin 10-100 mg/kg)
Source text: Animal Preparation Female rats (250-275 g BW) were anesthetized with urethane (1.2 g/kg) and a saline-filled catheter (PE-50) was inserted into the jugular vein for intravenous drug administration. Via a midline lower abdominal incision, a flared-tipped PE 50 catheter was inserted into the bladder dome for bladder filling and pressure recording and secured by ligation. The abdominal cavity was moistened with saline and closed by covering with a thin plastic sheet in order to maintain access to the bladder for emptying purposes. Fine silver or stainless steel wire electrodes were inserted into the external urethral sphincter (EUS) percutaneously for electromyography (EMG).
Experimental Design: Saline was continuously infused at a rate of 0.055 ml/min via the bladder filling catheter for 60 minutes to obtain a baseline of lower urinary tract activity (continuous cystometry; CMG). Following the control period, a 0.25% acetic acid solution in saline was infused into the bladder at the same flow rate to induce bladder irritation. Following 30 minutes of AA infusion, 3 vehicle injections were made at 20 minute intervals to determine vehicle effects, if any. Increasing doses of a selected active agent, gabapentin (30, 100 and 300 mg/kg; n=11) or pregabalin (10, 30 and 100 mg/kg; n=7), at half log increments were administered intravenously at 30 minute intervals in order to construct a cumulative dose-response relationship. At the end of the control saline cystometry period, at the third vehicle, and 20 minutes following each subsequent treatment, the infusion pump was stopped, the bladder was emptied via the infusion catheter and a single filling cystometrogram was performed at the same flow rate in order to determine changes in bladder capacity caused by the irritation protocol and subsequent […] drug administration. Body temperature was maintained at 37 C with a heating pad.
Bladder capacity was estimated by single filling cystometry. Data were analyzed by non-parametric ANOVA for repeated measures (Friedman Test) for cumulative dose-response studies and Dunn's Multiple Comparison post-test. In some cases, comparisons were made from the last vehicle measurement (AA/Veh 3). P<0.050 was considered significant.

[3] = tested on: α2δ subunit of calcium channels; conditions: Bryans et al. (1999) Med. Res. Rev. 19: 149-177; cited from earlier work
[4] = tested on: rat bladder irritated by intravesical protamine sulfate/KCl; assay: Urothelial permeation/physiological potassium model (protamine sulfate/KCl bladder irritation), filling cystometry; assay type: in vivo
Source text: Female rats (250-275 g BW) are anesthetized with urethane (1.2 g/kg) and a saline-filled jugular catheter (PE-50) is inserted for intravenous drug administration. Via a midline abdominal incision, a PE 50 catheter is inserted into the bladder dome for bladder filling and pressure recording. The abdominal cavity is moistened with saline and closed by covering with a thin plastic sheet in order to maintain access to the bladder for filling cystometry emptying purposes. Fine silver or stainless steel wire electrodes are inserted into the external urethral sphincter (EUS) percutaneously for electromyography (EMG).
Saline and all subsequent infusates are continuously infused at a rate of 0.055 ml/min via the bladder filling catheter for 30-60 minutes to obtain a baseline of lower urinary tract activity (continuous cystometry; CMG). Bladder pressure traces act as direct measures of bladder and urethral outlet activity, and EUS-EMG phasic firing and voiding act as indirect measures of lower urinary tract activity during continuous transvesical cystometry. […] Once a stable level of lower urinary tract hyperactivity is established (20-30 minutes), vehicle followed by increasing doses of a selected active agent are administered intravenously in order to construct a cumulative dose-response relationship and their effects on LUT function are monitored for 20 minutes. […]

| SMILES | block of currents recorded from bladder afferent neurons ([1]; 0.1 mM, data not shown) | bladder capacity normalized to pre-irritation saline control values (reversal of acetic acid-induced reduction) [2] [%] | bladder capacity during continuous intravesical dilute acetic acid infusion [2] | binding affinity for the α2δ subunit of calcium channels compared with gabapentin [3] | bladder capacity response compared with last vehicle measurement (AA/Veh 3) ([2]; rats n=5, 300 mg/kg intravenous, p<0.05 by Dunn's multiple comparison test) | peak calcium current during drug application, relative to control ([1]; 30 μM bath application, six bladder afferent neurons, step from −80 mV to 0 mV, mean±SEM) | bladder capacity during continuous bladder irritation (protamine sulfate/KCl) ([4]; rats n=6, 30, 100 and 300 mg/kg intravenously, sequential at 30 minute intervals, p=0.0108 by Friedman test) | drug-induced changes in blood pressure ([4]; rats, intravenous, any dose examined) |
| --- | --- | --- | --- | --- | --- | --- | --- | --- |
| [Cl][Cd][Cl] [CdCl2] | completely blocked | – | – | – | – | – | – | – |
| CC(C)C[C@H](CN)CC(=O)O [Pregabalin, (S)-(3-aminomethyl)-5-methylhexanoic acid] | – | 42 | demonstrate efficacy | even higher binding affinity | – | – | – | – |
| NCC1(CC(=O)O)CCCCC1 [gabapentin, 1-(aminomethyl)cyclohexaneacetic acid] | – | ~50 | partially reversing the reduction in bladder capacity caused by acetic acid in a dose-dependent fashion; also recorded: dose-dependent increase in bladder capacity; also recorded: demonstrate efficacy | – | significantly higher than AA/Veh 3 | 85+1% | reversed the irritation effect (decreased bladder capacity) in a dose-dependent fashion; also recorded: dose-dependent increase in bladder capacity | No drug-induced changes in blood pressure |
